Source: ChEMBL document CHEMBL2094260, “Malaria Box Tuberculosis Screening Data”

Legend:
[1] = system: Mycobacterium tuberculosis; assay: MMV: Screen against Mtb, single point, non replicating, at 25uM; format: functional
[2] = system: Mycobacterium tuberculosis; assay: MMV: Screen against Mtb, single point, replicating, at 25uM; format: functional

Row | SMILES | inhibition at 25 µM [1] | inhibition at 25 µM [2]
1 | CCN(CC)CCNc1ccnc2cc(Cl)ccc12 | 18.3% | 4.01%
2 | COc1ccccc1CNC(=O)CCn1c(=O)[nH]c2ccsc2c1=O | 0.338% | 9.93%
3 | COc1cc(-c2nc(-c3ccc(Sc4ccccc4)cc3)c(-c3ccccc3)[nH]2)cc(OC)c1O | 13.6% | 16.5%
4 | Cc1ccc(C)c(-c2csc(Nc3ccc(C)c(C)c3)n2)c1 | 9.48% | 12.5%
5 | COc1ccc(CCN2CCC(CN(C)Cc3cnn(-c4ccccc4)c3)CC2)cc1 | 15% | 21.3%
6 | c1ccc2c(NCCCCCCNc3c4c(nc5ccccc35)CCCC4)c3c(nc2c1)CCCC3 | 17.8% | 32.7%
7 | O=C(Nc1ccccc1O)c1ccc(-c2ccc(Cl)cc2Cl)o1 | 27.6% | 13.7%
8 | O=C(NCc1ccco1)C1CCN(S(=O)(=O)c2ccc(Br)cc2)CC1 | 10.5% | 13%
9 | COc1ccc(-c2nc(N3CCN(C(=O)C4CCCCC4)CC3)c3c4c(sc3n2)CCCC4)cc1 | 12.7% | 14.2%
10 | CCN1CCN(Cc2ccc(NC(=O)c3cc4ccc5cccnc5c4[nH]3)cc2)CC1 | 3.13% | 18.3%
11 | O=C(CCc1ccccc1)c1ccccc1OCC(O)CN1CCCCC1 (stereo not given) | 0.25% | 12.9%
12 | COc1ccc(-c2cc3c(SCC(=O)Nc4cc(C(F)(F)F)ccc4Cl)nccn3n2)cc1 | 15% | 10.2%
13 | O=C(Nc1ccc(-c2nc3cc4ccccc4cc3[nH]2)cc1)c1cccc(Br)c1 | 37% | 8.07%
14 | CCCCCCC(O)(c1ccc(F)cc1)C(CN1CCOCC1)c1ccccc1 (stereo not given) | 19.8% | 3.84%
15 | CCOc1cc2c(cc1OCC)C(c1cc(OC)c(O)cc1Cl)NCC2 (stereo not given) | 13.6% | 23.3%
16 | O=C(CCc1ccco1)NC1CCN(CC2(c3ccc(Cl)cc3)CCC2)CC1 | 20.8% | 31.6%
17 | N=c1n(CCN2CCCCC2)c2ccccc2n1CC(O)c1cccc(Br)c1 (stereo not given) | 12.9% | 16.3%
18 | COc1cc(C(=O)Nc2ccc(-c3nc4ccccc4[nH]3)cc2)cc(OC)c1OC | 19.1% | 27%
19 | CC1CN(C(=O)c2sc3ccccc3c2Cl)CC(C)O1 (stereo not given) | 22.9% | 15.5%
20 | CCOC(=O)C1=CN(C)C=C(C(=O)OCC)C1c1cc(Br)c(OCC)c(OC)c1 | 10.7% | -1.96%
21 | CN1C=C(c2ccc3ccccc3n2)C(c2c[nH]c3ccccc23)c2ccccc21 (stereo not given) | 20.1% | 19.7%
22 | COc1ccc(C(=O)Nc2ccc3nc(N4CCCCC4)cc(C)c3c2)cc1OC | 23.7% | 21.3%
23 | O=C(NC1CCN(Cc2ccccc2)CC1)c1cc2nc(-c3ccc(Cl)s3)cc(C(F)(F)F)n2n1 | 15.3% | 20.1%
24 | CCOC(=O)C1=C(C)N=c2sc(=Cc3cc(Cl)ccc3O)c(=O)n2C1c1ccc(OC)cc1 (stereo not given) | 13.4% | -0.235%
25 | COCCn1c(C)nc2ccccc2c1=O | 13.6% | 6.59%
26 | COCCNC(=O)c1ccc(OC2CCN(Cc3ccc(F)c(F)c3)CC2)c(Cl)c1 | 14.1% | 12.7%
27 | CSC1=NC(=Nc2c(C)cccc2C)C2(CCC(C(C)(C)C)CC2)N1c1ccc(Cl)cc1 (stereo not given) | 9.94% | 1.28%

Row | SMILES | inhibition at 25 µM [1] | inhibition at 25 µM [2]
28 | O=C1c2ccccc2C2=Nc3ccccc3SC(c3cccc(F)c3)C12 (stereo not given) | -5.43% | 7.45%
29 | CC1(c2ccccc2)Nc2ccccc2-c2nc3ccccc3n21 (stereo not given) | 12% | 8.87%
30 | COc1ccc(CN2CCCC(C(=O)c3ccc(C(F)(F)F)cc3)C2)c(O)c1 (stereo not given) | 1.85% | 35.3%
31 | COc1ccc(Br)cc1C1Nc2ccc3ccccc3c2C2=C1C(=O)CC(c1ccccc1)C2 (stereo not given) | 20.9% | 16.2%
32 | CCCCc1ccc(NS(=O)(=O)c2cc3c4c(c2)CCN4C(=O)CC3)cc1 | -2.45% | 7.2%
33 | Cc1c(C)n(CC(O)CNC2CCCCC2C)c2ccccc12 (stereo not given) | 7.84% | 24.7%
34 | CCOC(=O)C1CCN(C(=O)CN2C(=O)c3ccccc3C2c2c[nH]c3ccccc23)CC1 (stereo not given) | 8.89% | 4.16%
35 | COc1ccc2nc(C)cc(Nc3ccccc3O)c2c1 | 7.14% | 13.6%
36 | OC(CNC1CCCC1)Cn1c2ccccc2c2ccccc21 (stereo not given) | 13.1% | 27.5%
37 | CCCc1c(CC)c(=N)c2ccccc2n1C | 4% | 16%
38 | O=C(NC(c1ccccc1)c1ccc2cccnc2c1O)c1ccccc1 (stereo not given) | 17.1% | 7.65%
39 | COc1ccc(OC)c(C2C3=C(CC(C)(C)CC3=O)N(c3ccc(Cl)c(Cl)c3)C3=C2C(=O)CC(C)(C)C3)c1 | 7.7% | 5.56%
40 | CC1CC2=C(CC1CNCCCN(C)C)C(C)(C)CCC2 (stereo not given) | -0.993% | 42.2%
41 | CCN1CCN(c2cc(C)c3cc(NC(=O)c4ccc(OC)c(OC)c4)ccc3n2)CC1 | 12.7% | 14.8%
42 | CC(C)(C)c1ccc(C2CC3=Nc4ccccc4N(C(=O)c4ccccc4Cl)C(c4ccc(F)cc4)C3=C(O)C2)cc1 (stereo not given) | 14.4% | 1.49%
43 | O=c1cc(NC2CCN(CCCc3ccccc3)CC2)c2cc(Cl)ccc2o1 | 14.3% | 24.2%
44 | Cc1cc(C)cc(Nc2cc(C)nc3nc(C(F)(F)F)nn23)c1 | 4.53% | 7.5%
45 | CC(C)(C)c1ccc(O)c(CNC2CCCCC2)c1 | 16.6% | 38.8%
46 | Cc1ccc(-c2cc(C(=O)Nc3ccc(S(=O)(=O)N4CCCCC4)cc3)[nH]n2)c(O)c1 | 9.41% | 11.4%
47 | CCCN(CCC)CCCNC(=O)c1cc2c(-c3ccc(OC)c(OC)c3)nn(C)c2s1 | -0.011% | 5.83%
48 | CCN(CC)CCNc1ncnc2c1[nH]c1ccc(Cl)cc12 | 18.1% | 15.4%
49 | COc1cc(OC)cc(N2C(=O)N(Cc3ccc(C(C)(C)C)cc3)c3ccccc3S2(=O)=O)c1 | 13.6% | 2.59%
50 | O=C1CC(O)(C(F)(F)C(F)(F)F)Oc2ccccc21 (stereo not given) | 39.1% | 13%
51 | CCOC(=O)c1cnc2c(C)cc(C)cc2c1Nc1ccc(OC)c(OC)c1 | 3.83% | 4.46%
52 | O=C(CCl)NCCOc1ccc(Cl)cc1Cl | 25.3% | 35%
53 | COc1cccc(Nc2nc(N)c3ccccc3n2)c1 | 11.4% | 6.04%
54 | CCOC(=O)c1cn(CC)c2cc(N(C)CCc3ccc(OC)c(OC)c3)c(F)cc2c1=O | 11.9% | 14.8%

Row | SMILES | inhibition at 25 µM [1] | inhibition at 25 µM [2]
55 | COc1ccc(N2CCN(C(CNC(=O)CC(C)(C)C)c3ccc4c(c3)OCO4)CC2)cc1 (stereo not given) | -8.45% | 0.0784%
56 | COc1cccc(NC(=O)Cn2c(C)c(C#N)c3ccccc32)c1 | 8.89% | 7.96%
57 | COc1cccc(Cn2c(Oc3ccccc3)nc3c2c(=O)n(C)c(=O)n3C)c1 | -1.06% | 3.71%
58 | COc1ccc2nc(N)nc(C)c2c1 | -10.5% | 5.53%
59 | CCc1c(C)c(=N)c2ccccc2n1C | 2.08% | 4.16%
60 | CCCCCCc1cc2cc(-c3csc(C=Cc4ccccc4)n3)c(=O)oc2cc1O | 9.83% | -0.392%
61 | Cc1cc(NC(=O)c2ccc(-c3ccccc3)cc2)no1 | 13.8% | 8.72%
62 | CCOc1ccc(Nc2c3ccccc3nc3ccccc23)cc1 | 15.9% | 51.8%
63 | c1ccc2cc3c(Nc4ccc(N5CCOCC5)cc4)ccnc3cc2c1 | 0.164% | 19.5%
64 | CCOc1cc2c(cc1OCC)C(c1cc(C)c(O)c(C)c1)NCC2 (stereo not given) | 11.5% | 10.8%
65 | CN(C)CCNc1cc(-c2ccccc2)nc2ccccc12 | 6.45% | 6.89%
66 | CCOc1ccc(Nc2ccnc3cc(Cl)ccc23)cc1 | 8.59% | 54.6%
67 | COc1ccc(C(=O)Nc2ccc(Cl)cc2C(=O)Nc2ccncc2)cc1 | 30.9% | 4.46%
68 | CCn1c(SCC(=O)Nc2cc(C(F)(F)F)ccc2Cl)nc2ccccc2c1=O | 16% | 2.95%
69 | CCOc1ccccc1NC(=O)CN1CCN(C(=O)c2ccco2)CC1 | -0.186% | 23.1%
70 | FC(F)(F)c1cccc(Nc2nc(-c3ccccc3)nc3ncccc23)c1 | 7.32% | 1.43%
71 | CN1c2ccccc2N(C)C1c1ccc2c(c1)OCO2 | 14.5% | 9.63%
72 | Cn1c(=O)c2cc(C(=O)NCCCN3CCCCCC3)sc2c2ccccc21 | 14.6% | 19.5%
73 | CCOc1ccc(N2C(N)=NC(N)=NC2(C)C)cc1 | 8.77% | -0.705%
74 | C=CCc1c(C)nc2ccccc2c1O | 1.56% | 15.2%
75 | COc1ccc(C(=O)NC(c2ccccc2Cl)c2cc(Cl)c3cccnc3c2O)cc1 (stereo not given) | 5.04% | 10.6%
76 | Oc1ccc(Br)cc1CN1CCN(Cc2cccc(F)c2)CC1 | -1.58% | 28.5%
77 | COC(=O)c1ccc(Cl)c2c1C1C=CCC1C(c1cccc3ccccc13)N2 (stereo not given) | -4.9% | 12.1%
78 | COc1ccc2c(c1)C1(Nc3ccccc3-c3nc4ccccc4n31)C(=O)N2 (stereo not given) | 10.8% | 0.517%
79 | CN(C)c1ccc(C(O)(c2ccc(N(C)C)cc2)c2ccc(N(C)C)cc2)cc1 [METHYLROSANILINE] | 59.8% | 28.6%
80 | O=C(Cc1ccccc1)NC(c1ccc(Cl)cc1)c1c(O)ccc2ccccc12 (stereo not given) | -0.46% | 12%
